This assay has as its target T1, Osh6 (Saccharomyces cerevisiae, UniProt Q02201).
T1 construct: recombinant in E. coli BL21 Star; N-terminal His6-GB1 tag cleaved by TEV
T1 sequence (Q02201 1-448): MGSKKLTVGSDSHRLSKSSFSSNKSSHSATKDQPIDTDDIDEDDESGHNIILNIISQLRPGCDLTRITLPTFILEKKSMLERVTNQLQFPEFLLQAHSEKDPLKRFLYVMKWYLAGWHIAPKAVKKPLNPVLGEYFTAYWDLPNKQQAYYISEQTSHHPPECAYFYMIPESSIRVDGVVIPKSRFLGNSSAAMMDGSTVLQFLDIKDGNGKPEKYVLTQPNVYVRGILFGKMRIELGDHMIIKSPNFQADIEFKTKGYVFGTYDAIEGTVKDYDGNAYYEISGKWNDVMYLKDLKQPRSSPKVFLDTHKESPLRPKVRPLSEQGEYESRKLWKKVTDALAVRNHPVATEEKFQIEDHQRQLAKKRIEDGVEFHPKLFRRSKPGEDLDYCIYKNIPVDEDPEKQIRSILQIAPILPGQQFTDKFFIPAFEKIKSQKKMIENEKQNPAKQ
Kind of assay: FRET transport between LUVs, C2Lact-CFP biosensor and ATTO488-DOPE. It is filed as biochemical. To be noted: 100 nM Osh6; 5 mol% POPS donor LUVs to POPC acceptor LUVs.

For the compound `CCCCCCCC/C=C\CCCCCCCC(=O)O[C@H](COC(=O)CCCCCCCCCCCCCCC)COP(=O)(O)OC[C@H](N)C(=O)O` [PS, POPS], the “FRET transport between LUVs, C2Lact-CFP biosensor and ATTO488-DOPE” value is “Osh6 molecules pick up PS molecules from any membrane of high PS content”.

These data come from PMC8546167, “Osh6 Revisited: Control of PS Transport by the Concerted Actions of PI4P and Sac1 Phosphatase” (Frontiers in Molecular Biosciences, 2021).
